Among the test systems are ACHN renal; IGROV1 ovarian; NCI-H522 lung; CCRF-CEM leukemia; NCI-H460 lung; DU-145 prostate; UO-31 renal; MDA-MB-231 breast; MOLT-4 leukemia; MDA-MB-435; KM12 colon; SK-OV-3 ovarian; HCC-2998 colon.
Common to all, as to assay: NCI anticancer screen, dose series, 48 h

Among the data in PubChem BioAssay (NCI) are TGI values, retold here.

Structures are written as SMILES.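 Each compound was tested at five concentrations against cells in 96-well plates for 48 hours. TGI: total growth inhibition.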 Bounds are passed on as bounds.

In the case of `O=C1/C(=C/c2cccc([N+](=O)[O-])c2)Cc2ccccc21`, the TGI in the experiment on ACHN renal, in the experiment with IGROV1 ovarian, in the experiment with NCI-H522 lung, in the experiment on CCRF-CEM leukemia, in the experiment with NCI-H460 lung and in the experiment on DU-145 prostate was greater than 100 µM throughout. For the same molecule, the TGI in the experiment with UO-31 renal, in the experiment on MDA-MB-231 breast, in the experiment with MOLT-4 leukemia, in the experiment on MDA-MB-435, in the experiment with KM12 colon and with SK-OV-3 ovarian was greater than 100 µM each time.
Consider `Clc1ccc2c(c1)CC1C[N+]3=C(CCCCC3)C1=C2` (stereo not drawn), for which the TGI in the experiment with ACHN renal, with IGROV1 ovarian, in the experiment with NCI-H522 lung, in the experiment with CCRF-CEM leukemia, in the experiment on NCI-H460 lung and with DU-145 prostate was greater than 100 µM throughout. The TGI with UO-31 renal, in the experiment with MDA-MB-231 breast, in the experiment on MOLT-4 leukemia, with MDA-MB-435, in the experiment on KM12 colon and in the experiment with SK-OV-3 ovarian was greater than 100 µM throughout.
Take `CC(C)(Cl)C(Cl)CC/C(CBr)=C(\Cl)CBr` (stereo not drawn): the TGI with ACHN renal was determined as 13.9 µM; in the experiment with IGROV1 ovarian it was 3.66 µM; in the experiment with NCI-H522 lung it was 3.09 µM; with CCRF-CEM leukemia it was 0.325 µM; in the experiment with NCI-H460 lung, 8.21 µM; in the experiment with DU-145 prostate, 20.1 µM. Moreover, the TGI with UO-31 renal is 8.86 µM; with MDA-MB-231 breast it was 4.42 µM; in the experiment on MOLT-4 leukemia, 2.32 µM; in the experiment on MDA-MB-435 it was 5.34 µM; in the experiment on KM12 colon, 6.08 µM; with HCC-2998 colon, 21.6 µM. For the same molecule, the TGI in the experiment on SK-OV-3 ovarian turned out to be 13.5 µM.
Regarding `Cc1ccc(C(CCO)CCO)nc1`, the TGI in the experiment with ACHN renal, with NCI-H522 lung, in the experiment on CCRF-CEM leukemia, in the experiment on NCI-H460 lung, in the experiment on DU-145 prostate and in the experiment with UO-31 renal was greater than 100 µM in each case. Moreover, the TGI in the experiment with MDA-MB-231 breast, in the experiment with MOLT-4 leukemia, in the experiment on MDA-MB-435, with KM12 colon, with HCC-2998 colon and in the experiment with SK-OV-3 ovarian was greater than 100 µM throughout.
For the molecule `CC(C)(C)C1CCC2c3c([nH]c4ccccc34)C3C(=O)N(c4cc(Cl)ccc4Cl)C(=O)C3C2C1` (stereo not drawn), the TGI in the experiment on ACHN renal, in the experiment on IGROV1 ovarian, in the experiment on CCRF-CEM leukemia, in the experiment on NCI-H460 lung, with DU-145 prostate and in the experiment with UO-31 renal was greater than 100 µM throughout. Further, the TGI with MDA-MB-231 breast, in the experiment with MOLT-4 leukemia, in the experiment on MDA-MB-435, in the experiment with HCC-2998 colon and in the experiment on SK-OV-3 ovarian was greater than 100 µM throughout.
Regarding `O=C(O)c1ccccc1/C=N\N(CCO)C1=NCCN1`, the TGI with ACHN renal, with IGROV1 ovarian, in the experiment with CCRF-CEM leukemia, in the experiment with NCI-H460 lung, with DU-145 prostate and with UO-31 renal was greater than 100 µM in each case. Besides, the TGI in the experiment with MDA-MB-231 breast, with MOLT-4 leukemia, in the experiment with MDA-MB-435, in the experiment with KM12 colon, in the experiment with HCC-2998 colon and in the experiment on SK-OV-3 ovarian was greater than 100 µM in each case.
As to `CCOC(=O)c1cc(C2CCN(Cc3ccccc3)C2=O)c(C(=O)/C=C(/C)N)[nH]1` (stereo not drawn), the TGI in the experiment with ACHN renal, with IGROV1 ovarian, in the experiment on NCI-H522 lung, in the experiment with NCI-H460 lung, with DU-145 prostate and in the experiment with UO-31 renal was greater than 100 µM in each case. The TGI with MDA-MB-231 breast, in the experiment on MOLT-4 leukemia, with MDA-MB-435, in the experiment on KM12 colon, in the experiment with HCC-2998 colon and in the experiment on SK-OV-3 ovarian was greater than 100 µM each time.
On to `CC(c1ccccc1)n1c2ccccc2c2c(N)ncnc21` (stereo not drawn), for which the TGI with ACHN renal is 31.9 µM; in the experiment on IGROV1 ovarian, 38.2 µM; with NCI-H522 lung, 31.2 µM; with CCRF-CEM leukemia, greater than 100 µM; in the experiment with NCI-H460 lung, 58.3 µM; in the experiment on DU-145 prostate it was 42.8 µM. Besides, the TGI with UO-31 renal turned out to be 22.2 µM; with MDA-MB-231 breast, 34.9 µM; in the experiment with MOLT-4 leukemia, 52.7 µM; in the experiment on MDA-MB-435, 31 µM; in the experiment on HCC-2998 colon, 34.5 µM; in the experiment with SK-OV-3 ovarian it was 29.5 µM.
Turning to `CCCCCCC(O)C(=O)OC1C2C(CC1(C)C)C(O)C13OC1C(O)C1(CO1)[C@@]23C` (stereo partly drawn), the TGI with IGROV1 ovarian, in the experiment with NCI-H522 lung, with CCRF-CEM leukemia, with DU-145 prostate, in the experiment with UO-31 renal and with MDA-MB-231 breast was greater than 100 µM each time. For the same molecule, the TGI in the experiment on MOLT-4 leukemia, in the experiment on MDA-MB-435, in the experiment on KM12 colon and in the experiment with SK-OV-3 ovarian was greater than 100 µM each time.
In the case of `COc1c(-c2ccc(F)cc2)oc2c(CC(=O)O)cccc2c1=O`, the TGI with ACHN renal is greater than 100 µM; in the experiment with IGROV1 ovarian, greater than 100 µM; in the experiment on NCI-H522 lung, greater than 100 µM; in the experiment with CCRF-CEM leukemia it was greater than 100 µM; with DU-145 prostate it was greater than 100 µM; with UO-31 renal it was 96.6 µM. Also, the TGI in the experiment on MDA-MB-231 breast, in the experiment on MOLT-4 leukemia, in the experiment with MDA-MB-435, with HCC-2998 colon and in the experiment with SK-OV-3 ovarian was greater than 100 µM in each case.
As to `O=C(Cn1c2ccc(Br)cc2c2nc3ccccc3nc21)N1CCOCC1`, the TGI with ACHN renal, in the experiment on IGROV1 ovarian, in the experiment with CCRF-CEM leukemia, in the experiment with NCI-H460 lung, in the experiment with DU-145 prostate and in the experiment on UO-31 renal was greater than 100 µM throughout. The TGI in the experiment with MDA-MB-231 breast, with MOLT-4 leukemia, in the experiment with MDA-MB-435, in the experiment with KM12 colon, in the experiment with HCC-2998 colon and with SK-OV-3 ovarian was greater than 100 µM each time.
Regarding `[O-][N+]1=C(c2ccccc2)/C(=C2/C(c3ccccc3)=[N+]([O-])c3ccccc32)Cc2ccccc21`, the TGI with ACHN renal came out at 50.6 µM; in the experiment with IGROV1 ovarian, 35.2 µM; in the experiment on NCI-H522 lung, 30.5 µM; in the experiment with CCRF-CEM leukemia, 60.1 µM; in the experiment on DU-145 prostate it was 63.8 µM; in the experiment on UO-31 renal, 28.5 µM. Besides, the TGI was 33.5 µM in the experiment with MDA-MB-231 breast; 54.3 µM with MOLT-4 leukemia; 55.1 µM in the experiment with MDA-MB-435; 33.9 µM with KM12 colon; 29.5 µM in the experiment on HCC-2998 colon; greater than 100 µM in the experiment on SK-OV-3 ovarian.
As for `COc1c(N2CCCCC2)c2c(=O)c3ccccc3oc2c2c3ccccc3n(C)c12`, the TGI with ACHN renal, in the experiment with CCRF-CEM leukemia, in the experiment with NCI-H460 lung, with DU-145 prostate, in the experiment with UO-31 renal and in the experiment with MDA-MB-231 breast was greater than 100 µM throughout. Moreover, the TGI with MOLT-4 leukemia, in the experiment on MDA-MB-435, in the experiment on KM12 colon, in the experiment with HCC-2998 colon and in the experiment with SK-OV-3 ovarian was greater than 100 µM throughout.
Take `CC(NNC(=S)N1CCCC1)c1cccnn1` (stereo not drawn): the TGI in the experiment on ACHN renal was 4.68 µM; with IGROV1 ovarian it was greater than 59.3 µM; in the experiment on CCRF-CEM leukemia it was greater than 100 µM; in the experiment with NCI-H460 lung, greater than 81.5 µM; in the experiment with DU-145 prostate it was greater than 70 µM; with UO-31 renal, 3.08 µM. Besides, the TGI in the experiment with MDA-MB-231 breast is greater than 100 µM; in the experiment on MOLT-4 leukemia, greater than 100 µM; in the experiment with MDA-MB-435, greater than 100 µM; in the experiment with KM12 colon it was greater than 100 µM; in the experiment on HCC-2998 colon, greater than 100 µM; in the experiment on SK-OV-3 ovarian it was greater than 65.5 µM.
Turning to `CCCC1(N2C(=O)c3ccc4c5c(ccc(c35)C2=O)N(C2(CCC)CCCCC2)C4=O)CCCCC1`, the TGI in the experiment with ACHN renal, in the experiment on NCI-H522 lung, in the experiment on NCI-H460 lung, with DU-145 prostate, in the experiment with UO-31 renal and with MDA-MB-231 breast was greater than 100 µM in each case. Also, the TGI in the experiment with MOLT-4 leukemia, with MDA-MB-435, in the experiment on KM12 colon, with HCC-2998 colon and with SK-OV-3 ovarian was greater than 100 µM each time.
Consider `Cc1ccc(/C=C2\CCS(=O)(=O)c3ccccc3C2=O)cc1`, for which the TGI in the experiment on ACHN renal was determined as 28.6 µM; in the experiment on IGROV1 ovarian, 28.7 µM; with CCRF-CEM leukemia, 62.3 µM; in the experiment on NCI-H460 lung, 31.3 µM; in the experiment with DU-145 prostate, 27.7 µM; in the experiment on UO-31 renal, 25.4 µM. For the same molecule, the TGI in the experiment with MDA-MB-231 breast amounted to 34.6 µM; with MOLT-4 leukemia, 43.6 µM; with MDA-MB-435 it was 55.2 µM; in the experiment with KM12 colon it was 30.6 µM; in the experiment on HCC-2998 colon it was 28.9 µM; in the experiment on SK-OV-3 ovarian, 46.3 µM.
With `N#Cc1c2c(c(Nc3cccc(C(F)(F)F)c3)n3c1nc1ccccc13)CCCC2`, the TGI was greater than 100 µM in the experiment with ACHN renal; 22.1 µM with NCI-H522 lung; greater than 100 µM in the experiment on NCI-H460 lung; greater than 100 µM with DU-145 prostate; 58.9 µM in the experiment with MDA-MB-231 breast; greater than 100 µM in the experiment with MOLT-4 leukemia. For the same molecule, the TGI is greater than 100 µM with MDA-MB-435, greater than 100 µM in the experiment on KM12 colon and 48 µM with SK-OV-3 ovarian.
In the case of `COc1ccc(C(SCCO)(c2ccc(OC)cc2)c2ccc(OC)cc2)cc1`, the TGI in the experiment on ACHN renal was 50.2 µM; in the experiment on NCI-H522 lung, 28.2 µM; in the experiment with CCRF-CEM leukemia, 66 µM; with NCI-H460 lung, 35.8 µM; in the experiment with DU-145 prostate, greater than 100 µM; in the experiment on UO-31 renal it was 34.4 µM. The TGI with MDA-MB-231 breast stood at 46.6 µM; in the experiment on MOLT-4 leukemia, 56.4 µM; with MDA-MB-435 it was 23.5 µM; in the experiment on KM12 colon it was 71.1 µM; with HCC-2998 colon, 30.5 µM; in the experiment on SK-OV-3 ovarian it was 94.5 µM.
